Patent US20240116985A1, “STAPLED PEPTIDES AND METHODS THEREOF” (priority 2020, published 2024)
In brackets after ≈: the same amount, converted by molar mass. Where two headings read alike, the source gives them in different places.

Experiments:
Solubility in PBS = assay type: physicochemical
How it was run: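 Solubility is derived from HPLC peak areas: the ratio of the PBS supernatant peak to a 50 μM DMSO peptide peak, times 50 uM.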

CHI Log D procedure = assay type: physicochemical; details: for chromatographic logD: pH 7.4, CHI Log D; for CHI Log D: pH 7.4
[1] = molecular target: T1, full-length beta-Catenin (Uniprot ID P35222) (Homo sapiens, UniProt P35222); test: Fluorescence polarization IC50 (beta-catenin / 5FAM-TCF4 10-53 competition); assay type: binding
T1 construct: 10 nM full-length beta-Catenin (Uniprot ID P35222)
T1 sequence (P35222 1-781): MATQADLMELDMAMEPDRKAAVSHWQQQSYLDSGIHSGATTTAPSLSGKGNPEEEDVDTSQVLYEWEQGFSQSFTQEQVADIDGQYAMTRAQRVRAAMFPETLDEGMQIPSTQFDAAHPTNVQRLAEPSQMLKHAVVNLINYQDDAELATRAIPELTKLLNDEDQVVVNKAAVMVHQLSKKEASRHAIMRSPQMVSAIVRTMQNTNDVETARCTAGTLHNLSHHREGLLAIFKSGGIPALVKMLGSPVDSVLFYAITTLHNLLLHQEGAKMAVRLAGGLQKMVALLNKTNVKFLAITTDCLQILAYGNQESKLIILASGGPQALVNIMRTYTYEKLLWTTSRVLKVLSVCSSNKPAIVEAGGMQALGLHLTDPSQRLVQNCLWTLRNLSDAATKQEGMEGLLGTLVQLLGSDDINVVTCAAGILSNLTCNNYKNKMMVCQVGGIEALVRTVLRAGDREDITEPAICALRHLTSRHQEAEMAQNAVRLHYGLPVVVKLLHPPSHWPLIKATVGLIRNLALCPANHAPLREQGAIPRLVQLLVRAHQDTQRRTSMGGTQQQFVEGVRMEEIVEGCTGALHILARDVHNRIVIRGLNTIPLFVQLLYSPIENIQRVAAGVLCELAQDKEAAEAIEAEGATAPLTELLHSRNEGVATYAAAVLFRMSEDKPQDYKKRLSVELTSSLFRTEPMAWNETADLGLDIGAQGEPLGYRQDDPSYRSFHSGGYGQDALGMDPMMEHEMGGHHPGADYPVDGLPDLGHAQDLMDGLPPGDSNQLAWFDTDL

[2] = fluorescence polarization, beta-catenin, read-out: FP EC50

SMILES	Solubility (Solubility in PBS; Solubility (uM)) [µM]	chromatographic logD (CHI Log D procedure)	IC50 ([1]; read-out: beta-Catenin FP IC50) [nM]	Solubility (Solubility in PBS) [µM]	CHI Log D (CHI Log D procedure)	IC50 [1, 2] [nM]
CC(=O)N1CCC[C@]12CC=CCCCC1(CCCC=CCCCOC(=O)N3CC[C@@](C(=O)N[C@@H](Cc4ccsc4)C(=O)N[C@@H](Cc4csc5ccccc45)C(=O)N[C@@H](CCC(N)=O)C(N)=O)(C3)NC(=O)[C@H](CC(N)=O)NC(=O)[C@H](Cc3ccccc3)NC(=O)[C@H](CCCCNC(=O)CCc3cc(C(F)(F)F)cc(C(F)(F)F)c3)NC(=O)[C@H](C)NC(=O)[C@H](CC(=O)O)NC(=O)[C@H](CC(=O)O)NC1=O)NC(=O)[C@H](CC(C)(C)C)NC(=O)[C@H](CC(=O)O)NC2=O (stereo partly drawn) [I-883, Ac-PL3-Asp-Npg-B5-Asp-Asp-Ala-[35CF3PhPr]Lys-Phe-Asn-PyrS2-3Thi-BztA-Gln-NH2]	42 (≈ 94.2 µg/mL)	2.4	53			
CC(=O)N1CCC[C@]12CC=CCCCC1(CCCC=CCCCOC(=O)N3CC[C@@](C(=O)N[C@@H](Cc4ccsc4)C(=O)N[C@@H](Cc4csc5ccccc45)C(=O)N[C@@H](CCC(N)=O)C(N)=O)(C3)NC(=O)[C@H](CC(N)=O)NC(=O)[C@H](Cc3ccccc3)NC(=O)[C@H](CCCCNC(=O)C3CCN(C4CCN(C)CC4)CC3)NC(=O)[C@H](C)NC(=O)[C@H](CC(=O)O)NC(=O)[C@H](CC(=O)O)NC1=O)NC(=O)[C@H](CC(C)(C)C)NC(=O)[C@H](CC(=O)O)NC2=O (stereo partly drawn) [I-888, Ac-PL3-Asp-Npg-B5-Asp-Asp-Ala-[MeBipipAc]Lys-Phe-Asn-PyrS2-3Thi-BztA-Gln-NH2]	21 (≈ 45.9 µg/mL)	1.39	13			
CC(=O)N1CCC[C@]12CC=CCCCC1(CCCC=CCCCOC(=O)N3CC[C@@](C(=O)N[C@@H](Cc4ccsc4)C(=O)N[C@@H](Cc4csc5ccccc45)C(=O)N[C@@H](CCC(N)=O)C(N)=O)(C3)NC(=O)[C@H](CC(N)=O)NC(=O)[C@H](Cc3ccccc3)NC(=O)[C@H](CCCCNC(=O)c3ccc(CN(C)C)cc3)NC(=O)[C@H](C)NC(=O)[C@H](CC(=O)O)NC(=O)[C@H](CC(=O)O)NC1=O)NC(=O)[C@H](CC(C)(C)C)NC(=O)[C@H](CC(=O)O)NC2=O (stereo partly drawn) [I-891, Ac-PL3-Asp-Npg-B5-Asp-Asp-Ala-[Me2NCBz]Lys-Phe-Asn-PyrS2-3Thi-BztA-Gln-NH2]	42 (≈ 89.7 µg/mL)	1.53	13			
CC(=O)N1CCC[C@]12CC=CCCCC1(CCCC=CCCCOC(=O)N3CC[C@@](C(=O)N[C@@H](Cc4ccsc4)C(=O)N[C@@H](Cc4csc5ccccc45)C(=O)N[C@@H](CCC(N)=O)C(N)=O)(C3)NC(=O)[C@H](CC(N)=O)NC(=O)[C@H](Cc3ccccc3)NC(=O)[C@H](CCCCNC(=O)CCC34CC5CC(CC(C5)C3)C4)NC(=O)[C@H](C)NC(=O)[C@H](CC(=O)O)NC(=O)[C@H](CC(=O)O)NC1=O)NC(=O)[C@H](CC(C)(C)C)NC(=O)[C@H](CC(=O)O)NC2=O (stereo partly drawn) [I-901, Ac-PL3-Asp-Npg-B5-Asp-Asp-Ala-[AdamantPro]Lys-Phe-Asn-PyrS2-3Thi-BztA-Gln-NH2]	40 (≈ 86.6 µg/mL)	2.49	38			
CC(=O)N1CCC[C@]12CC=CCCCC1(CCCC=CCCCOC(=O)N3CC[C@@](C(=O)N[C@@H](Cc4ccsc4)C(=O)N[C@@H](Cc4csc5ccccc45)C(=O)N[C@@H](CCC(N)=O)C(=O)N[C@@H](CCCCNC(=O)CN4CCOCC4)C(N)=O)(C3)NC(=O)[C@H](CC(N)=O)NC(=O)[C@H](Cc3ccccc3)NC(=O)[C@H](C)NC(=O)[C@H](C)NC(=O)[C@H](CC(=O)O)NC(=O)[C@H](CC(=O)O)NC1=O)NC(=O)[C@H](CC(C)(C)C)NC(=O)[C@H](CC(=O)O)NC2=O (stereo partly drawn) [I-905, Ac-PL3-Asp-Npg-B5-Asp-Asp-Ala-Ala-Phe-Asn-PyrS2-3Thi-BztA-Gln-[Morph Ac]Lys-NH2]	46 (≈ 100 µg/mL)	1.92	8			
COCCOCCOCCOCCC(=O)NCCCC[C@H](NC(=O)[C@H](CCC(N)=O)NC(=O)[C@H](Cc1csc2ccccc12)NC(=O)[C@H](Cc1ccsc1)NC(=O)[C@]12CCN(C1)C(=O)OCCCC=CCCCC1(CCCC=CC[C@]3(CCCN3C(C)=O)C(=O)N[C@@H](CC(=O)O)C(=O)N[C@@H](CC(C)(C)C)C(=O)N1)C(=O)N[C@@H](CC(=O)O)C(=O)N[C@@H](CC(=O)O)C(=O)N[C@@H](C)C(=O)N[C@@H](C)C(=O)N[C@@H](Cc1ccccc1)C(=O)N[C@@H](CC(N)=O)C(=O)N2)C(N)=O (stereo partly drawn) [I-912, Ac-PL3-Asp-Npg-B5-Asp-Asp-Ala-Ala-Phe-Asn-PyrS2-3Thi-BztA-Gln-[mPEG4]Lys-NH2]	45 (≈ 102 µg/mL)	1.83	10			
COCCOCCOCCOCCOCCOCCOCCOCCC(=O)NCCCC[C@H](NC(=O)[C@H](CCC(N)=O)NC(=O)[C@H](Cc1csc2ccccc12)NC(=O)[C@H](Cc1ccsc1)NC(=O)[C@]12CCN(C1)C(=O)OCCCC=CCCCC1(CCCC=CC[C@]3(CCCN3C(C)=O)C(=O)N[C@@H](CC(=O)O)C(=O)N[C@@H](CC(C)(C)C)C(=O)N1)C(=O)N[C@@H](CC(=O)O)C(=O)N[C@@H](CC(=O)O)C(=O)N[C@@H](C)C(=O)N[C@@H](C)C(=O)N[C@@H](Cc1ccccc1)C(=O)N[C@@H](CC(N)=O)C(=O)N2)C(N)=O (stereo partly drawn) [I-914, Ac-PL3-Asp-Npg-B5-Asp-Asp-Ala-Ala-Phe-Asn-PyrS2-3Thi-BztA-Gln-[mPEG8]Lys-NH2]	46 (≈ 112 µg/mL)	1.82	16			
CC(=O)N1CCC[C@]12CC=CCCCC1(CCCC=CCCCOC(=O)N3CC[C@@](C(=O)N[C@@H](Cc4ccsc4)C(=O)N[C@@H](Cc4csc5ccccc45)C(=O)N[C@@H](CCC(N)=O)C(=O)N[C@@H](CCCCNC(=O)c4cccc5ccccc45)C(N)=O)(C3)NC(=O)[C@H](CC(N)=O)NC(=O)[C@H](Cc3ccccc3)NC(=O)[C@H](C)NC(=O)[C@H](C)NC(=O)[C@H](CC(=O)O)NC(=O)[C@H](CC(=O)O)NC1=O)NC(=O)[C@H](CC(C)(C)C)NC(=O)[C@H](CC(=O)O)NC2=O (stereo partly drawn) [I-916, Ac-PL3-Asp-Npg-B5-Asp-Asp-Ala-Ala-Phe-Asn-PyrS2-3Thi-BztA-Gln-[1Napc]Lys-NH2]	45 (≈ 99 µg/mL)	2.33	28			
CC(=O)N1CCC[C@]12CC=CCCCC1(CCCC=CCCCOC(=O)N3CC[C@@](C(=O)N[C@@H](Cc4ccsc4)C(=O)N[C@@H](Cc4csc5ccccc45)C(=O)N[C@@H](CO)C(N)=O)(C3)NC(=O)[C@H](CC(N)=O)NC(=O)[C@H](Cc3ccccc3)NC(=O)[C@H](C)NC(=O)[C@H](C)NC(=O)[C@H](CN(CC(=O)O)CC(F)(F)F)NC(=O)[C@H](CC(=O)O)NC1=O)NC(=O)[C@H](CC(C)(C)C)NC(=O)[C@H](CC(=O)O)NC2=O (stereo partly drawn) [I-940, Ac-PL3-Asp-Npg-B5-Asp-TfeGA-Ala-Ala-Phe-Asn-PyrS2-3Thi-BztA-Ser-NH2]			1740	45 (≈ 89.5 µg/mL)	2.055	1740
CC(=O)N1CCC[C@]12CC=CCCCC1(CCCC=CCCCOC(=O)N3CC[C@@](C(=O)N[C@@H](Cc4ccsc4)C(=O)N[C@@H](Cc4csc5ccccc45)C(=O)N[C@@H](CO)C(N)=O)(C3)NC(=O)[C@H](CC(N)=O)NC(=O)[C@H](Cc3ccccc3)NC(=O)[C@H](C)NC(=O)[C@H](C)NC(=O)[C@H](CN(CC(=O)O)CC(F)(F)F)NC(=O)[C@H](CC(=O)O)NC1=O)NC(=O)[C@H](CC(C)(C)C)NC(=O)[C@H](CC(=O)O)NC2=O (stereo partly drawn) [I-941, Ac-PL3-Asp-Npg-B5-Asp-TfeGA-Ala-Ala-Phe-Asn-PyrS2-3Thi-BztA-Ser-NH2]			2110	46 (≈ 91.5 µg/mL)	2.011	2110
CC(=O)N1CCC[C@]12CC=CCCCC1(CCCC=CCCCOC(=O)N3CC[C@@](C(=O)N[C@@H](Cc4ccsc4)C(=O)N[C@@H](Cc4csc5ccccc45)C(=O)N[C@H](C(N)=O)[C@@H](C)O)(C3)NC(=O)[C@H](CC(N)=O)NC(=O)[C@H](Cc3ccccc3)NC(=O)[C@H](C)NC(=O)[C@H](C)NC(=O)[C@H](CN(CC(=O)O)CC(F)(F)F)NC(=O)[C@H](CC(=O)O)NC1=O)NC(=O)[C@H](CC(C)(C)C)NC(=O)[C@H](CC(=O)O)NC2=O (stereo partly drawn) [I-942, Ac-PL3-Asp-Npg-B5-Asp-TfeGA-Ala-Ala-Phe-Asn-PyrS2-3Thi-BztA-Thr-NH2]			1280	46 (≈ 92.1 µg/mL)	1.984	1280
